Tests used:
[1] = Drug releasing characteristics of the active ingredient from the scaffold; assay type: physicochemical
Experimental: To evaluate the drug releasing characteristics of the active ingredient included in the scaffold, the scaffold for hard tissue regeneration (containing Quercetein by 200 μm/scaffold) prepared in Example 1 was dipped in body fluid like PBS (phosphate buffered saline) or de-ionized water in a 37° C. shaker. Sampling of the solution was performed hourly and the concentration of Quercetein released in the solution was measured. Quercetein is a hydrophobic material, so that it is very difficult to detect the concentration by dissolving. To evaluate the drug releasing activity in a solution where the active material is dissolved, the experiment was equally performed with ethanol, the dissolving solvent.
The following experiment was performed by the same manner as described in Example <1-1> except that the scaffold for hard tissue regeneration (containing Genistein by 200 μm/scaffold) prepared in Example 3 instead of the scaffold for hard tissue regeneration (containing Quercetein by 200 μm/scaffold) prepared in Example 1.

[2] = tested on: MC3T3-E1 cells; assay: Osteoblast proliferation activity, MTS assay, drug in medium; assay type: cell-based
Experimental: MC3T3-E1 cells (MC3T3-E1 Subclone 4, ATCC CRL-2593, obtained from ATCC) were cultured in α-MEM (α-Minimum Essential Medium, GIBCO) supplemented with FBS (Fetal Bovine Serum) and penicillin/streptomycin under the standard culture condition (37° C., 5% CO2). When the cells were grown to 70˜80% confluency, the cells were trypsinized. Then, the cells were collected by centrifugation.
The collected MC3T3-E1 cells were seeded at the density of 1.0×10^4 cells, followed by standard culture for 2 hours. The medium containing Quercetein at the concentrations of 0, 1, 10, 50, 100, and 200 μm was added thereto.
To observe the metabolic activity of the seeded MC3T3-E1 cells, colorimetric 3-(4,5-dimethylthiazole-2-yl)-5-(3-carboxymethoxyphenol)-2-(4-sulfophenyl)-2H-tetrazolium (MTS) assay (CellTiter 96® AQeous One solution Cell Proliferation Assay, Promega) was performed according to the manufacturer's instruction. The MTS tetrazolium compound is converted biologically and dissolved in the tissue culture medium by the cells into a formazan product displaying highest absorbance at 490 nm.
The following experiment was performed by the same manner as described in Experimental Example <2-1> except that Genistein was used instead of Quercetein.

[3] = tested on: RAW 264.7 cells, the multinuclear osteoclasts treated with RANKL; assay: Osteoclast proliferation activity, drug in medium; assay type: cell-based; conditions: for inhibition of osteoclast proliferation, ranking among Quercetein, Genistein, Alendronate: same dose; for proliferation of osteoclasts: compared with the case not treated, 1 μM or 200 μM
[4] = Solubility of the active ingredient; assay type: physicochemical
[5] = determined from the proliferation of osteoblasts

Genistein released ([1]; from scaffold of Example 3 (200 μm/scaffold), ethanol, early 5 days) [%] | Genistein released ([1]; from scaffold of Example 3, de-ionized water and PBS, over 55 days, without early acute release) [%] | solubility in an aqueous solution [4] | solubility in ethanol compared with that of Quercetein ([4]; ethanol, from comparison of release results) | Quercetein released ([1]; from scaffold of Example 1 (200 μm/scaffold), ethanol, 37° C. shaker, over 40 days, without early acute release) [%] | Quercetein released ([1]; from scaffold of Example 1, de-ionized water and PBS, 37° C., early 20 days) [%] | Quercetein released ([1]; from scaffold of Example 1, de-ionized water and PBS, 37° C., over 68 days) | Quercetein released ([1]; from scaffold, de-ionized water and PBS, over 60 days) [%] | Structure (SMILES) | proliferation of osteoblasts ([2]; 1 μM, day 3 and day 5) | promoting effect on osteoblast proliferation relative to Quercetein ([2]; 1 μM, day 3 and day 5) | proliferation of osteoblasts ([2]; concentration increased from 1 to 10 μM, vs non-treated group) | proliferation of osteoblasts ([2]; concentration over 10 μM) | most preferable concentration (osteoblast proliferation) [2, 5] [µM] | preferable concentration (osteoblast proliferation) [2, 5] | inhibition of osteoclast proliferation, ranking among Quercetein, Genistein, Alendronate ([3]; 1 μM) | proliferation of osteoclasts [3] | effect on the proliferation of osteoblasts ([2]; 200 μM, day 3 and day 5, comparison with Alendronate) | proliferation of osteoblasts ([2]; concentration increased from 1 to 200 μM, vs non-treated group, day 1, 3, 5) | inhibition of osteoclast proliferation, ranking among Quercetein, Genistein, Alendronate ([3]; 200 μM)
100 | 60 | low | even higher |  |  |  |  | O=c1c(-c2ccc(O)cc2)coc2cc(O)cc(O)c12 [Genistein] | promoted the proliferation of osteoblasts | greater than that of Quercetein | increased | rather inhibited | 1 | 1˜10 μM | most excellent in inhibiting the proliferation of osteoclasts | significantly inhibited |  |  | 
 |  | low |  | 100 | 10 | approximately 50% | 50 | O=c1c(O)c(-c2ccc(O)c(O)c2)oc2cc(O)cc(O)c12 [Quercetein] | promoted the proliferation of osteoblasts |  |  |  |  | 1˜200 μM |  | significantly inhibited | increased the proliferation significantly | increased Quercetein dose-dependently | most excellent in inhibiting the proliferation of osteoclasts

Reference: patent publication US9889234B2, “Scaffold for hard tissue regeneration containing active ingredient for treating osteoporosis and preparing method thereof” (KOREA INSTITUTE OF MACHINERY AND MATERIALS, priority 2014, dated 2018)
